Starred links: 1 amine or outer side, 2 acyl side, 3 side chain; linkers in the order of their positions; H or OH if unused. Non-standard residues stand in square brackets, D forms with d. No end group written: not given here. *: point of attachment. C(Bzl) = O=C([C@H](CSCc1ccccc1)N[*:1])[*:2]; tBuAla = CC(C)(C)C[C@H](N)C(=O)O; Suc = O=C(CCC(=O)[*:2])[*:1]; Isovaleryl = CC(C)CC(=O)*; hCys = N[C@@H](CCS)C(=O)O; Nva = CCC[C@H](N)C(=O)O; Tba = not defined here
B1: C34-PBD* (peptide)
peptide: Ac-NNYTSLIHSLIEESQNQQEKNEQELL-NH2

Legend:
[1] = molecular target: gp41 of HIV-1 strain HXB2D with mutation Q40H (HIV-1 strain HXB2D) (UniProt P04578)
[2] = molecular target: gp41 of HIV-1 wild type strain IIIB (HIV-1 strain IIIB)
[3] = test system: HIV mutant virus strain HXB2D with mutation V38A in the gp41 gene; experiment: Standard AVE, HXB2D site directed mutant V38A; type: cell-based, HIV-1; details: fold change vs wild type strain HXB2D
From the text: • Standard Anti-Viral-Experiment “AVE” (wild type HIV strain IIIB+HIV strain HXB2D side directed mutants V38A and Q40H)
The HIV-1 replication assay measures virus replication (HIV wild type virus strain 111B or HXB2D, or a HIV mutant virus strain HXB2D with mutation V38A or Q40H in the gp41 gene) as an induction of enhanced green fluorescent protein (EGFP) expression. The indicator MT4-LTR-EGFP cells contain an EGFP gene under the control of the HIV-1 LTR promoter sequence. Successful HIV-1 infection results in viral Tat protein expression and subsequent induction of EGFP expression. Compounds/peptides inhibiting HIV-1 infection are expected to reduce EGFP expression as compared to the untreated HIV-infected control.
Serial 4-fold dilutions of test compounds/peptides were mixed with HIV-1 (IIIB, HXB2D, or a HXB2D mutant virus (V38A or Q40H)) and MT4-LTR-EGFP cells and incubated at 37° C. After 3 days, the wells were examined for EGFP expression using an argon laser-scanning microscope. The effective compound/peptide concentration inhibiting 50% of the virus-induced EGFP signal (EC50) was determined by linear interpolation of the EGFP signal vs. logarithm of the compound concentration; (T20, C34 and Sifuvirtide were added as reference compounds). For the V38A and Q40H mutant viruses, results were reported as a fold change in EC50, as compared with a drug-susceptible wild type strain HXB2D, which forms the backbone of the mutant virus. • Standard AVE (50% Human Serum)

[4] = test system: HIV mutant virus strain HXB2D with mutation Q40H in the gp41 gene; experiment: Standard AVE, HXB2D site directed mutant Q40H; type: cell-based, HIV-1; details: fold change vs wild type strain HXB2D
Method in brief: (§1)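 MT4-LTR-EGFP cells infected with HIV-1 IIIB, HXB2D or HXB2D gp41 mutants V38A/Q40H alongside serial 4-fold compound dilutions, 3 days at 37° C. EGFP read by laser-scanning microscopy; EC50 by linear interpolation against log concentration. Mutant results given as fold change in EC50 versus wild-type HXB2D.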

HIV-IIIB + 50% HS = experiment: Standard AVE (50% Human Serum), HIV-1 replication assay in MT4-LTR-EGFP cells; type: cell-based; details: fold change vs EC50 in the assay without human serum
Method in brief: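 MT4-LTR-EGFP cells infected with HIV-1 alongside 4-fold serial compound dilutions in 50% human serum, 3 days at 37 °C. EGFP read by laser-scanning microscopy; EC50 by linear interpolation against log concentration, reported as fold change versus EC50 without serum.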

[5] = test system: HIV wild type virus strain IIIB; experiment: Standard Anti-Viral-Experiment (AVE), HIV-1 replication assay in MT4-LTR-EGFP cells, wild type IIIB; type: cell-based; details: 3 days, EGFP signal
Method in brief: as §1

| Molecule | fold change in EC50, HIV-HXB2D Q40H mutant [1] [fold] | EC50 of HIV-IIIB replication (EGFP) [2] [nM] | fold change in EC50, HIV-IIIB + 50% HS [2] [fold] | HIV-HXB2D V38A mutant (fold change in EC50) [3] | HIV-HXB2D Q40H mutant (fold change in EC50) [4] | HIV-IIIB + 50% HS (Fold change in EC50) (HIV-IIIB + 50% HS) | EC50 [5] [nM] |
| --- | --- | --- | --- | --- | --- | --- | --- |
| C34 (peptide) | 8.8 | 266 | 0.8 |  |  |  |  |
| Isovaleryl-E-C(Bzl)-YLALIEELIRKAQEQQEKNEAALR-NH2 ({Isovaleryl-Glu-C(Bzl)}-YLALIEELIRKAQEQQEKNEAALR-NH2; SMILES CC[C@H](C)[C@H](NC(=O)[C@H](CC(C)C)NC(=O)[C@H](C)NC(=O)[C@H](CC(C)C)NC(=O)[C@H](Cc1ccc(O)cc1)NC(=O)[C@H](CSCc1ccccc1)NC(=O)[C@H](CCC(=O)O)NC(=O)CC(C)C)C(=O)N[C@@H](CCC(=O)O)C(=O)N[C@@H](CCC(=O)O)C(=O)N[C@@H](CC(C)C)C(=O)N[C@H](C(=O)N[C@@H](CCCNC(=N)N)C(=O)N[C@@H](CCCCN)C(=O)N[C@@H](C)C(=O)N[C@@H](CCC(N)=O)C(=O)N[C@@H](CCC(=O)O)C(=O)N[C@@H](CCC(N)=O)C(=O)N[C@@H](CCC(N)=O)C(=O)N[C@@H](CCC(=O)O)C(=O)N[C@@H](CCCCN)C(=O)N[C@@H](CC(N)=O)C(=O)N[C@@H](CCC(=O)O)C(=O)N[C@@H](C)C(=O)N[C@@H](C)C(=O)N[C@@H](CC(C)C)C(=O)N[C@@H](CCCNC(=N)N)C(N)=O)[C@@H](C)CC) [Peptide 18] |  |  |  | 3 | 53 | 3 | 1 |
| Sifuvirtide (peptide) | 2 | 2 | 1 |  |  |  |  |
| Sifuvirtide-PBD (peptide) | > 3 | 36400 | 0.8 |  |  |  |  |
| Suc-ACY-Nva-ACIEALIRAAQEQQEKNEAALR-NH2 [Peptide 44] |  |  |  | 15 | 160 | 1 | 2 |
| Suc-ACYLAC)EELIRKAQEQQEKNEAALR-NH2 [Peptide 31] |  |  |  | 14 | 238 | 0.4 | 1 |
| Suc-ACYLACIEALIRA-Abu-QEQQEKNEAALR-NH2 [Peptide 47] |  |  |  | 17 | 261 | 2 | 1 |
| Suc-ACYLACIEALIRA[Nva]QEQQEKNEAALR-NH2 (cysteine pairing not given here) [Peptide 46] |  |  |  | 6 | 42 | 2 | 1 |
| Suc-ANYLALIEAL-Tba-RAAQEQQEKNEAALR-NH2 (reading uncertain; also: chains 1 and 2 are one peptide joined through Tba residue, printed as Suc-ANYLALIEAL-Tba-RAAQEQQEKNEAALR-NH2) [Peptide 11] |  |  |  | 26 | 368 | 0.8 | 1 |
| Suc-CYLACIEELIRKAGEQQEKNEAAL-Tba-NH2 (Suc-CYLACIEELIRKAGEQQEKNEAAL-{Tba-NH2}; cysteine pairing not given here; reading uncertain; also: printed as Suc-CYLACIEELIRKAGEQQEKNEAAL-Tba-NH2) [Peptide 25] |  |  |  | 31 | 352 | 3 | 0.6 |
| Suc-CYLACIEELIRKAQEQQEKNEAAL-Tba-NH2 [23] (Suc-CYLACIEELIRKAQEQQEKNEAAL-{Tba-NH2}; cysteine pairing not given here; reading uncertain; also: printed as Suc-CYLACIEELIRKAQEQQEKNEAAL-Tba-NH2) [Peptide 23] |  |  |  | 45 | 807 | 0.6 | 1 |
| Suc-CYLACIEELIRKAQEQQEKNEAAL-Tba-NH2 [24] (Suc-CYLACIEELIRKAQEQQEKNEAAL-{Tba-NH2}; cysteine pairing not given here; reading uncertain; also: printed as Suc-CYLACIEELIRKAQEQQEKNEAAL-Tba-NH2) [Peptide 24] |  |  |  | 26 | 321 | 1 | 1 |
| Suc-CYLACIEELIRKAQEQQEKNEAAL-Tba-NH2 [27] (Suc-CYLACIEELIRKAQEQQEKNEAAL[tBuAla]-NH2; cysteine pairing not given here) [Peptide 27] |  |  |  | 28 | 307 | 0.7 | 3 |
| Suc-Hcy-YLA-Hcy-IEALIRAAREQQEKNEALLR-NH2 (Suc-[hCys]YLA[hCys]IEALIRAAREQQEKNEALLR-NH2; also: cyclised, bridge not given here) [Peptide 28] |  |  |  | 4 | 25 | 4 | 0.6 |
| T20 (peptide) | 49.7 | 17 | 3.9 |  |  |  |  |
| B1 |  | > 49200 |  |  |  |  |  |

Source: patent US20140357577A1, “HIV Membrane Fusion Inhibitors” (priority 2011, published 2014)
